Molecules are shown by their SMILES.

Data set [1] deals with T1, interaction between Supt4h and NGN (subunit of Supt5h) (Homo sapiens, UniProt O00267+P63272).
T1 construct: expressed in transfected cells
In words: Split Gaussia luciferase complementation assay (M2-8 Luciferase). It counts as cell-based. To be noted: M2-8 cells. Summed up:
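HEK293-derived M2-8 cells inducibly express Supt4h-Gluc1 and NGN-Gluc2 fragments (stabilizing mutations) on RheoSwitch ligand addition; ligand plus compound added 24 h after plating and left 24 h. Cells frozen, lysed with 10 μg/ml native coelenterazine, 1 h room temperature dark; complemented luciferase luminescence read.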

In a further data set the test system is wild-type HTT. Put plainly: Wild-type HTT assay in lymphoblastoid cells (LBC), Western blot. It counts as cell-based, human. As to conditions: 3 days compound treatment, read-out: LBC IC20 (nM) wtHTT. Summed up:
(§1)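 HD patient lymphoblastoid cells (GM14044, 250 CAG repeats in mutant allele) treated with compound for 3 days. Lysates normalised by BCA, run on SDS-PAGE and immunoblotted: mutant HTT with anti-polyQ MW1, wild-type HTT with anti-Huntingtin antibody, TBP and tubulin also probed. Band intensities quantified by infrared imaging.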
On the technique in general: A western blot detects proteins with antibodies after separation by electrophoresis.

Data set [2] deals with mutant HTT. In words: Mutant HTT assay in lymphoblastoid cells (LBC), Western blot. It counts as cell-based, human. To be noted: read-out: LBC IC20 (nM) mHTT, 3 days compound treatment. The method, boiled down: as §1
The subject of data set [3] is mutant HTT. Put plainly: Mutant HTT assay in induced pluripotent stem cells (iPSC). It counts as cell-based, human. As to conditions: HD patient iPSCs, one day incubation, read-out: iPSC IC20 (nM) mHTT. The procedure: C. Mutant HTT Assay in Induced Pluripotent Stem Cells (iPSC) a. Cell Culturing and Compound Treatment
Huntington's disease patient iPSCs (ND50036 from NINDS) were detached into single cells by Accutase (25058CI from Corning), counted and plated on a 24-well plate coated with Matrigel (354277 from Corning) at density of 7,000 cells/well. After 48 hrs, compounds were added to the cell culture medium mTeSR1 (85850 from StemCell Technologies) and the cells were incubated for one day. The medium was then removed, and the cells were washed with PBS. After all liquid was removed, the plate was placed at −80° C. overnight. Lysis buffer [30 mM Tris-HCl (pH 8.0), 5 mM NaCl, 0.1% Triton X-100] with the complete proteinase inhibitor cocktail (5892791001 from Sigma-Aldrich) was then added to the cells. Cell samples were lysed on an orbital plate shaker at 4° C. at 700 rpm for 30 min. The supernatants from spinning (14 k rpm for 10 min) were collected. The protein concentrations were determined by BCA assay (23225 from Pierce, ThermoFisher). […]
b. Detection of Mutant HTT Protein
Equal amounts of protein lysate collected from each sample were added to a 96-well plate that had been coated with a human HTT specific monoclonal antibody. After washing away any unbound substances, a biotinylated anti-human mutant HTT specific detection antibody was added. Streptavidin-horseradish peroxidase was subsequently added, followed by TMB Substrate Solution, which yielded a blue product that turns yellow when the Stop Solution was added. The intensity of the color measured was in proportion to the amount of mutant HTT bound in the initial step. The mutant HTT values are then interpolated from a standard curve.

A further data set concerns M2-8 cells. Put plainly: M2-8 Cell viability Assay. To be noted: at the concentration of 1000 nM. The class given is cell-based.
For data set [4], the system named is Gmr::HTT97Q fly (mutant HTT, rough eye). In words: HD-Drosophila phenotypic assay (rough eye analysis). The class given is in vivo, Drosophila melanogaster. As to conditions: Gmr-HTT97Q flies, compound 10 μM in media. The source says:
D. Alleviation of Neuron Degeneration Phenotypes of Mutant HTT in Drosophila HD Models
The Drosophila melanogaster (fruit fly) HD models carry the coding sequence of human HTT exon1 with 97 CAG repeats to mimic mutant HTT of Huntington's disease (HD). The Gmr::HTT97Q fly, expressing mutant HTT primarily in the neurons of Drosophila compound eyes, has a severe degeneration of photoreceptor neurons and the phenotypic trait ‘rough eye’. All of the fly stocks and genetics crosses are maintained at 25° C. on standard cornmeal yeast agar media.
b. Eye Morphology (Rough Eye) Analysis
Fifteen adult male flies (Gmr-HTT97Q/Gmr-HTT97Q or Gmr/Gmr) are crossed with 15 virgin female flies W1118(+/+) in a vial containing standard yeast agar media with the compound in a concentration of 10 μM. Parent-flies are removed from vials at day 7, followed by a collection of newly hatched flies for ‘rough eye’ analysis. The morphology of compound eyes is captured using a Leica DMR upright microscope equipped with a digital camera (CoolSNAP 5.0, Photometrics). To increase the depth of field, imaging software is used to create montage composite images (Helicon Focus, HeliconSoft). A total of 10 flies are collected for analysis in each individual condition, and the biological experiment is conducted three times. DMSO, the reagent solvent of the compound, is included as a control.

Data set [5] concerns Lymphoblastoid cells (GM14044). In words: LBC cell viability (Cell Titer-Glo). The class given is cell-based, human. As to conditions: at the concentration of IC20, 3-day compound treatment. Here is the method: Cell viability was determined by Cell Titer-Glo reagent (Promega, PRG9243). After 3-day compound treatment, 15 μl of cell suspension was taken out from plate and incubated with 10 μl of CTG reagent. The values of reaction mixture were detected by Tecan.

For another data set, the system named is mouse hepatocytes. Put plainly: In vitro metabolic stability in mouse hepatocytes. The class given is in vitro ADME. The procedure:
A. In Vitro Metabolic Stability in Hepatocyte
A compound's metabolic stability was assessed using mouse hepatocytes incubated with pre-defined concentration of test articles over several incubation period. The extent of metabolism was calculated from the disappearance of the test compound measured by liquid chromatography mass spectrometry (LC-MS), compared to that of 0-min control. After incubation, quench solutions including internal standards were added and analyzed by LC/MS. The elimination rate constant and intrinsic clearance (CLhepatocyte) values were calculated by linear regression of the compound elimination over the duration of incubation, normalized to the cell number in the given volume of incubation medium.

Data set [6] has as its system Huntington's disease patient iPSCs (ND50036). Put plainly: iPSC viability at IC20. It counts as cell-based, human. As to conditions: at the concentration of IC20.

For `OCc1ccc(CN[C@H]2CCCc3c2[nH]c2ccc(Br)cc32)cc1` [Compound 3], the IC50 (in general, the point on the concentration scale where inhibition reaches its midpoint) in data set [1] is more than 1000 nM. Further, the 20% effect concentration (IC20) (as a rule, the concentration needed for an effect of 20%) in the data set on wild-type HTT is more than 1000 nM; with mutant HTT [2] it was more than 1000 nM; with mutant HTT [3] (numeric bounds) it was more than 100 nM. In addition, the “M2-8 Cell viability” value in the data set with M2-8 cells was “+ (cell viability is greater than 50% at the concentration of 1000 nM)”. Also, the “HD-Drosophila Phenotypic assay (rescue of rough eye phenotype)” value in data set [4] is reported as “@ (rough eye phenotype of HD flies is rescued by testing compound less than 40%)”.
In data set [1], `OCc1ccc(CN[C@@H]2CCCc3c2[nH]c2ccc(Br)cc32)s1` [Compound 36, (R)-(5-(((6-bromo-2,3,4,9-tetrahydro-1H-carbazol-1-yl)amino)methyl)thiophen-2-yl)methanol] registered an IC50 not above 100 nM. Moreover, the IC20 is more than 1000 nM in the data set with wild-type HTT, 101 to 300 nM in the data set on mutant HTT [2] and less than 100 nM with mutant HTT [3] (class symbols). Also, in data set [5], the “LBC viability at IC20” value is “* (cell viability is greater than 60% at the concentration of IC20)”. Further, the “Mouse HepStability (CLhepatocyte)” value in the data set on mouse hepatocytes is recorded as “C (CLhepatocyte >30 μl/min/10^6cells)”. Besides, in [6], the “iPSC viability at IC20” value is on record as “+ (cell viability is greater than 75% at the concentration of IC20)”. The “M2-8 Cell viability” value in the data set on M2-8 cells was “+ (cell viability is greater than 50% at the concentration of 1000 nM)”.
For `OB1OCc2cc(CN[C@@H]3CCCc4c3[nH]c3ccc(Br)cc43)ccc21` [Compound 37], in data set [1], the IC50 is 101 to 300 nM. Besides, the concentration for an effect of 20% (IC20) with wild-type HTT was more than 1000 nM; in the data set with mutant HTT [2], 101 to 300 nM; in the data set on mutant HTT [3] (numeric bounds) it was more than 100 nM. Also, the “LBC viability at IC20” value in [5] is listed as “* (cell viability is greater than 60% at the concentration of IC20)”. The “Mouse HepStability (CLhepatocyte)” value with mouse hepatocytes was “B (CLhepatocyte 10-30 μl/min/10^6cells)”. In addition, the “M2-8 Cell viability” value in the data set with M2-8 cells was “+ (cell viability is greater than 50% at the concentration of 1000 nM)”.
`OB(O)c1ccc(CN[C@@H]2CCCc3c2[nH]c2ccc(Br)cc32)cc1` [Compound 38, (R)-(4-(((6-bromo-2,3,4,9-tetrahydro-1H-carbazol-1-yl)amino)methyl)phenyl)boronic acid] returned an IC50 in data set [1] not above 100 nM. The IC20 in the data set with wild-type HTT was more than 1000 nM; in the data set with mutant HTT [2], 101 to 300 nM; with mutant HTT [3] (class symbols) it was less than 100 nM. Moreover, in data set [5], the “LBC viability at IC20” value is reported as “* (cell viability is greater than 60% at the concentration of IC20)”. In addition, in the data set with mouse hepatocytes, the “Mouse HepStability (CLhepatocyte)” value is on record as “C (CLhepatocyte >30 μl/min/10^6cells)”. Besides, the “iPSC viability at IC20” value in data set [6] is reported as “+ (cell viability is greater than 75% at the concentration of IC20)”. Also, the “M2-8 Cell viability” value in the data set on M2-8 cells was “+ (cell viability is greater than 50% at the concentration of 1000 nM)”.
Compound `CC(C)(O)c1ccc(CN[C@@H]2CCCc3c2[nH]c2ccc(Br)nc32)s1` [Compound 66] showed an IC50 in data set [1] not above 100 nM. Further, the IC20 with wild-type HTT was more than 1000 nM; in the data set on mutant HTT [2], less than 100 nM; in the data set with mutant HTT [3] (class symbols), less than 100 nM. The “LBC viability at IC20” value in data set [5] is “* (cell viability is greater than 60% at the concentration of IC20)”. Moreover, in [6], the “iPSC viability at IC20” value is recorded as “+ (cell viability is greater than 75% at the concentration of IC20)”. The “M2-8 Cell viability” value with M2-8 cells is on record as “+ (cell viability is greater than 50% at the concentration of 1000 nM)”.

The record behind these values is patent US20220062233A1 (The Board of Trustees of the Leland Stanford Junior …, priority 2018, published 2022).
